# Source: patent publication US6835382B2, “Ii peptide therapeutics to enhance antigen presentation” (University of Massachusetts, priority 1996, dated 2004)
# Non-standard residues stand in square brackets, D forms with d. Cit = NC(=O)NCCC[C@H](N)C(=O)O; Orn = NCCC[C@H](N)C(=O)O
# Experiments:
# [1] = target: T1, murine E^d MHC class II allele (Mus musculus, UniProt P01904+P01915); test: simultaneous assay, E^d allele (A20 APC, G28.C9 T hybridoma, HEL106-116; HT-2 [3H]TdR readout); format: cell-based; parameters: The A20 and CH27 B cell lymphoma lines express H-2^d and H-2^k alleles, respectively; endogenous in cells; host or cells: A20 B cell lymphoma (mitomycin C-treated or paraformaldehyde-fixed); conditions: for Times Baseline Response, Ed: Table 3
# T1 sequence (P01904 26-255): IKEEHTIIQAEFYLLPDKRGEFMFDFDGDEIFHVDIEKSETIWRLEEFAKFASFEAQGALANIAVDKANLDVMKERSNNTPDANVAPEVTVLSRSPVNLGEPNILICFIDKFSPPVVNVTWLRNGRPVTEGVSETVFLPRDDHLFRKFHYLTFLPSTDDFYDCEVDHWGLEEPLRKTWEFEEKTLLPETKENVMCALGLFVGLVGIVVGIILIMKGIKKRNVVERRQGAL
# T1 sequence (P01915 27-264 limits assumed): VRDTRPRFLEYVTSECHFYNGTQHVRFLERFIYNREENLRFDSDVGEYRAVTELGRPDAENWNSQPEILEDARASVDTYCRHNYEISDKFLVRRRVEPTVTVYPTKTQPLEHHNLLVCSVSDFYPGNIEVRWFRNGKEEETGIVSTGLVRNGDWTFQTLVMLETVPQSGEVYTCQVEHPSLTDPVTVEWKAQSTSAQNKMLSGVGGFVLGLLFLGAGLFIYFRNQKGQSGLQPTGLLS
# Method: (§1) Examples 1-4 (Tables 1-18) will be briefly considered in order to establish the concept of tolerance discussed above. These examples describe experimental results observed in the so-called “simultaneous” assay. In the simultaneous assay four principle components are cultured together for a 24 hour period. The components of this culture, which are added simultaneously, are: (a) an antigenic peptide characterized by the ability to bind specifically into the antigenic peptide binding groove of an MHC class II molecule, (b) mitomycin C-treated, MHC class II-positive antigen presenting cells (APC) bearing the MHC class II allele required for binding of the specific antigenic peptide, and presentation of the specific antigenic peptide to the antigenic peptide-specific T cell hybridoma, (c) an effector compound of the present invention, and (d) an MHC class II allele-restricted T cell hybridoma specific for the antigenic peptide and the MHC class II allele restricting its presentation. Following incubation of this primary culture, an aliquot of its supernatant is transferred into a second culture well for incubation with an interleukin-dependent lymphoblastoid cell line. The degree of stimulation of that second, indicator cell by the interleukins which had been released from the activated T cell hybridoma in the primary culture is measured by quantitating tritiated thymidine deoxyribose {[^3H]TdR} uptake into the DNA of the HT-2 indicator cells of that second culture.
# (§2) In the “simultaneous assay” the four components of the assay are cultured together for a 24 h period. The components of this primary culture, added at the same time or simultaneously, are: (a) the antigenic peptide, (b) mitomycin C-treated, MHC class II-positive antigen presenting cells (APC) with the MHC class II allele required for binding of the specific antigenic peptide and its presentation to the antigenic peptide-specific T cell hybridoma, (c) an AE101 series effector peptide, and (d) MHC class II allele-restricted T cell hybridoma specific for the antigenic peptide and the MHC class II allele restricting its presentation. At the end of the incubation of this primary culture, an aliquot of its supernatant is transferred into a second culture well for incubation with an interleukin-dependent lymphoblastoid cell line. The degree of stimulation of that second, indicator cell by the interleukins which had been released from the activated T cell hybridoma in the primary culture is measured by quantitating tritiated thymidine deoxyribose {[^3H]TdR} uptake into the DNA of the HT-2 indicator cells of that second culture.
# (§3) For these various assays, the following antigenic peptides were used: HEL11-25, hen egg lysozyme 11-25, AMKRHGLDNYRGYSL(A^d) (SEQ ID NO:5); HEL46-61, hen egg lysozyme 46-61, NTDGSTDYGILQINSR(Ak) (SEQ ID NO:6); HEL106-116, hen egg lysozyme 106-116, NAWVAWRNRCK (E^d) (SEQ ID NO:7); PGCC81-104, pigeon cytochrome c 81-104, […] (Ek) (SEQ ID NO:8), and THMCC82-103, tobacco hornworm moth cytochrome c 82-103, […] (Ek) (SEQ ID NO:9). AE101 series peptides were obtained from commercial sources. In general, the purity and composition of each peptide was confirmed by HPLC separation and mass spectrometry. The native protein antigens were HEL, hen egg lysozyme, and PGCC, pigeon cytochrome C. They were obtained from commercial sources.
# (§4) For the experiments of these Examples, several T cell hybridomas, which are specific for certain antigenic peptides, were used. The TPc9.1 T hybridoma is specific for pigeon cytochrome C 81-104 peptide presented on the murine class II MHC allele E^k. The TPc9.1 hybridoma responds heteroclitically to tobacco hornworm moth cytochrome c 82-103 on E^k. The 3A9 T hybridoma is specific for hen egg lysozyme 46-61 on A^k. The 9.30.B2 hybridoma is specific for hen egg lysozyme 11-25 on A^d, and the G28.C9 hybridoma is specific for hen egg lysozyme 106-116 on E^d. […]
# [2] = test system: murine E^k MHC class II allele; test: simultaneous assay, E^k allele (CH27 APC, TPc9.1 T hybridoma, THMCC82-103 or PGCC81-104); format: cell-based; conditions: for Times Baseline Response, Ek: Table 3, values reduced relative to E^d by a factor of 10
# Method: as §1, §2, §3, §4
# [3] = Table 9, AE peptide 64 μM, supernatant 1:4
# [4] = Table 9, AE peptide 64 μM, supernatant 1:4, normalized by a factor of 5
# [5] = Table 5, AE peptide 64 μM, supernatant 1:4
# [6] = Table 5, AE peptide 64 μM, supernatant 1:4, normalized to E^d by a factor of 10
# [7] = AE peptide 64 μM, supernatant 1:4
# [8] = Table 10, AE peptide 16 μM (second value), supernatant 1:2
# [9] = Table 10, AE peptide 64 μM (first value), supernatant 1:2
# [10] = Table 10, AE peptide 64 μM, supernatant 1:2 (first value)
# [11] = Table 10, AE peptide 64 μM, supernatant 1:4 (second value)
# [12] = Table 6, AE peptide 64 μM, supernatant 1:4
# [13] = Table 6, AE peptide 64 μM, supernatant 1:4, reduced by a factor of 5
# [14] = Table 12, AE peptide 1 μM (fourth value), supernatant 1:2
# [15] = Table 12, AE peptide 4 μM (third value), supernatant 1:2
# [16] = Table 12, AE peptide 16 μM (second value), supernatant 1:2
# [17] = Table 12, AE peptide 64 μM (first value), supernatant 1:2
# [18] = Table 12, AE peptide 1 μM (fourth value), supernatant 1:4
# [19] = Table 12, AE peptide 4 μM (third value), supernatant 1:4
# [20] = Table 12, AE peptide 16 μM (second value), supernatant 1:4
# [21] = Table 12, AE peptide 64 μM (first value), supernatant 1:4
# [22] = Table 1, AE peptide 16 μM (second value), 0.4 μM HEL106-116, supernatant 1:4
# [23] = Table 1, AE peptide 64 μM (first value), 0.4 μM HEL106-116, supernatant 1:4
# [24] = Table 1, AE peptide 16 μM (second value), 0.075 μM THMCC82-103, supernatant 1:2
# [25] = Table 1, AE peptide 64 μM (first value), 0.075 μM THMCC82-103, supernatant 1:2
substance,measurement,setting,value
Ac-LRMKLP M-NH2 [AE250],"Times Baseline Response, E^d",[1]; [3],13.9
same,"Times Baseline Response, E^k",[2]; [4],21.3
Ac-LR F KLPK-NH2 [AE204],"Times Baseline Response, E^d",[1]; [5],14.0
same,"Times Baseline Response, E^k",[2]; [6],31.8
Ac-[Orn]RMKLPK-NH2 [AE180],"Times Baseline Response, Ed",[1]; [7],12.6
same,"Times Baseline Response, Ek",[2]; [7],10.8
Ac-YRMKLPKSAA-NH2 [AE128],"Times Baseline Response, E^d",[1]; [8],29.5
same,"Times Baseline Response, E^d",[1]; [9],33.0
same,"Times Baseline Response, E^k",[2]; [10],51.9
same,"Times Baseline Response, E^k",[2]; [11],58.6
Ac-LRM[Orn]LPK-NH2 [AE210],"Times Baseline Response, E^d",[1]; [12],6.6
same,"Times Baseline Response, E^k",[2]; [13],9.0
Ac-YRMKLAKSAK-NH2 [AE125],"Times Baseline Response, E^d",[1]; [8],1.7
same,"Times Baseline Response, E^d",[1]; [9],2.0
same,"Times Baseline Response, E^k",[2]; [10],38.7
same,"Times Baseline Response, E^k",[2]; [11],32.8
Ac-[Cit]RMKLPK-NH2 [AE181],"Times Baseline Response, Ed",[1]; [7],9.0
same,"Times Baseline Response, Ek",[2]; [7],11.5
Ac-YRMKAPKSAK-NH2 [AE124],"Times Baseline Response, E^d",[1]; [8],7.3
same,"Times Baseline Response, E^d",[1]; [9],12.5
same,"Times Baseline Response, E^k",[2]; [10],66.0
same,"Times Baseline Response, E^k",[2]; [11],65.9
Ac-E RMKLPK-NH2 [AE186],"Times Baseline Response, Ed",[1]; [7],2.5
same,"Times Baseline Response, Ek",[2]; [7],1.3
Ac-LRM N LPK-NH2 [AE216],"Times Baseline Response, E^d",[1]; [12],2.4
same,"Times Baseline Response, E^k",[2]; [13],3.3
Ac-Q RMKLPK-NH2 [AE188],"Times Baseline Response, Ed",[1]; [7],8.8
same,"Times Baseline Response, Ek",[2]; [7],7.7
Ac-LRM Y LPK-NH2 [AE219],"Times Baseline Response, E^d",[1]; [12],7.1
same,"Times Baseline Response, E^k",[2]; [13],8.8
Ac-YRAKLPKSAK-NH2 [AE122],"Times Baseline Response, E^d",[1]; [8],9.2
same,"Times Baseline Response, E^d",[1]; [9],16.2
same,"Times Baseline Response, E^k",[2]; [10],46.2
same,"Times Baseline Response, E^k",[2]; [11],41.4
Ac-HArg RMKLPK-NH2 [AE182],"Times Baseline Response, Ed",[1]; [7],18.8
same,"Times Baseline Response, Ek",[2]; [7],26.5
Ac-LRMKLP Y-NH2 [AE249],"Times Baseline Response, E^d",[1]; [3],12.2
same,"Times Baseline Response, E^k",[2]; [4],17.1
Ac-LR H KLPK-NH2 [AE198],"Times Baseline Response, E^d",[1]; [5],16.1
same,"Times Baseline Response, E^k",[2]; [6],18.7
Ac-LRMKLP Q-NH2 [AE247],"Times Baseline Response, E^d",[1]; [3],4.5
same,"Times Baseline Response, E^k",[2]; [4],10.9
Ac-LRMKLP D-NH2 [AE244],"Times Baseline Response, E^d",[1]; [3],0.9
same,"Times Baseline Response, E^k",[2]; [4],2.7
Ac-H RMKLPK-NH2 [AE183],"Times Baseline Response, Ed",[1]; [7],10.3
same,"Times Baseline Response, Ek",[2]; [7],17.3
Ac-lrmklpk-NH2 [AE170],"Times Baseline Response, E^d",[1]; [14],1.3
same,"Times Baseline Response, E^d",[1]; [15],1.3
same,"Times Baseline Response, E^d",[1]; [16],1.2
same,"Times Baseline Response, E^d",[1]; [17],1.1
same,"activity in simultaneous assay on E^d and E^k, in words",[1]; Tables 12 and 18,inactive
same,"Times Baseline Response, E^k",[2]; [18],1.7
same,"Times Baseline Response, E^k",[2]; [19],2.1
same,"Times Baseline Response, E^k",[2]; [20],2.4
same,"Times Baseline Response, E^k",[2]; [21],2.8
Ac-LRM H LPK-NH2 [AE213],"Times Baseline Response, E^d",[1]; [12],6.1
same,"Times Baseline Response, E^k",[2]; [13],5.7
Ac-YRMKLPKS-NH2 [AE112],"Times Baseline Response, E^d",[1]; [22],26.2
same,"Times Baseline Response, E^d",[1]; [23],42.8
same,"Times Baseline Response, E^k",[2]; [24],3.2
same,"Times Baseline Response, E^k",[2]; [25],15.3
RMKLPKSAKPVSQMR [AE102],"Times Baseline Response, E^d",[1]; [22],4.2
same,"Times Baseline Response, E^d",[1]; [23],13.3
same,"Times Baseline Response, E^k",[2]; [24],0.8
same,"Times Baseline Response, E^k",[2]; [25],1.0
Ac-N RMKLPK-NH2 [AE187],"Times Baseline Response, Ed",[1]; [7],6.3
same,"Times Baseline Response, Ek",[2]; [7],9.5
Ac-LR Q KLPK-NH2 [AE203],"Times Baseline Response, E^d",[1]; [5],14.1
same,"Times Baseline Response, E^k",[2]; [6],20.5
Ac-LRMKLpk-NH2 [AE173],"Times Baseline Response, E^d",[1]; [14],2
same,"Times Baseline Response, E^d",[1]; [15],10
same,"Times Baseline Response, E^d",[1]; [16],92
same,"Times Baseline Response, E^d",[1]; [17],123
same,"Times Baseline Response, E^k",[2]; [18],2.1
same,"Times Baseline Response, E^k",[2]; [19],4.3
same,"Times Baseline Response, E^k",[2]; [20],25.0
same,"Times Baseline Response, E^k",[2]; [21],51.3
Ac-YRMALPKSAK-NH2 [AE123],"Times Baseline Response, E^d",[1]; [8],10.7
same,"Times Baseline Response, E^d",[1]; [9],24.0
same,"Times Baseline Response, E^k",[2]; [10],65.0
same,"Times Baseline Response, E^k",[2]; [11],51.1
Ac-LR E KLPK-NH2 [AE201],"Times Baseline Response, E^d",[1]; [5],7.0
same,"Times Baseline Response, E^k",[2]; [6],3.4
Ac-LRMKLP L-NH2 [AE251],"Times Baseline Response, E^d",[1]; [3],11.9
same,"Times Baseline Response, E^k",[2]; [4],18.6
Ac-LRM D LPK-NH2 [AE214],"Times Baseline Response, E^d",[1]; [12],0.8
same,"Times Baseline Response, E^k",[2]; [13],0.4
